# “Also recorded” adds a separate entry of the source.
# Experiments:
# [1] = Vacuum drying experiments of Form B; format: physicochemical; conditions: for Weight Loss (calculated by weight before and after drying): Vacuum oven; for XRPD Result: after Vacuum oven
# Description: Weighted amounts of impure Form B and pure Form B samples from the previous experiments (Samples 14, 8, 11, 19, 21, and 23) were vacuum dried at ambient or elevated temperatures using various vacuum levels from approximately 14 in Hg up 27-28 in Hg. The resulting materials were weighted out prior to submission for XRPD analysis.
# The XRPD pattern of the resulting material was consistent with Form B, however, tiny shifting in a few peak positions in the XRPD pattern was observed (FIG. 26).
# [2] = Crystallization and slurry experiments, morphic forms of Compound II (XRPD, characterization); format: physicochemical; conditions: morphic forms (XRPD patterns) of Compound II
# Method: Eleven unique XRPD patterns (Form A-Form K) of Compound II were obtained from crystallization and slurry experiments using various solvents.
# Forms A, B, and D were evaluated as solid state forms.
# [3] = Dynamic vapor sorption (moisture sorption) experiment; conditions: for % wt change at 60% RH / % wt change at 90% RH: DVS; for stability in the moisture sorption experiment (XRPD of dried sample): after DVS; for stability in the moisture sorption experiment (XRPD of dried sample) / XRPD (post DVS): dried at 60° C. and 0% RH; for XRPD (post DVS): after moisture sorption experiment
# Method: Dynamic vapor sorption experiments were performed on Form A, Form B, and Form D. Table 103 provides the results of the DVS experiment.
# [4] = Stability study under thermal stress, 60° C. for 7 days; format: physicochemical
# Method: Forms A, B, and D were stored in an oven maintained at 60° C. for 7 days.
# [5] = Vacuum drying experiments of Form B; format: physicochemical; conditions: for Weight Loss (calculated by weight before and after drying): Vacuum oven
# [6] = Solubility estimate by aliquot addition with visual observation; format: physicochemical
# Method: Solubility estimates of impure Form B were attempted in various predominantly HCl acidic aqueous acetone solvent mixtures using an aliquot addition method that involved visual observation. Aliquots of various solvents or diluent/organic solvent mixtures were added to measured amounts of impure Form B with agitation (typically sonication) at ambient temperature until complete dissolution was achieved, as judged by visual observation. Solubilities were calculated based on the total solvent used to give a solution; actual solubilities may be greater because of the volume of solvent portions utilized or a slow rate of dissolution. […] If dissolution occurred at the first aliquot, the value was reported as “>”. Due to the haziness of the obtained samples, effective solubility estimates were difficult to discern.
# [7] = TG and TG-IR analysis of Form B; format: physicochemical; conditions: TG-IR
# Method: The TG analyses were performed using a TA Instrument Q5000 thermogravimetric analyzer. Temperature calibration was performed using nickel and Alumel. The sample was placed in a platinum pan and inserted into the TG furnace. The furnace was heated under a nitrogen purge to 350° C. at a rate of 10° C./min.
# Thermogravimetric infrared (TG-IR) analysis was performed on a TA Instruments Q5000 IR thermogravimetric (TG) analyzer interfaced to a Magna-IR 560@ Fourier transform infrared (FT-IR) spectrophotometer (Thermo Nicolet) equipped with an Ever-Glo mid/far IR source, a potassium bromide (KBr) beamsplitter, and a mercury cadmium telluride (MCT-A) detector. The FT-IR wavelength verification was performed using polystyrene, and the TG calibration standards were nickel and Alumel™. The sample was placed in a platinum sample pan and the pan was inserted into the TG furnace. The TG instrument was started first, immediately followed by the FT-IR instrument. The TG instrument was operated under a flow of helium at 90 and 10 cc/minute for the purge and balance, respectively. The furnace was heated under helium at a rate of 20° C./minute to a final temperature of approximately 140° C. IR spectra were collected approximately every 32 seconds for approximately 7.5 minutes. Each IR spectrum represents 32 co-added scans collected at a spectral resolution of 4 cm-1. Volatiles were identified from a search of the High Resolution Nicolet Vapor Phase spectral library.
# A TG-IR experiment was carried out on pure Form B (Sample 11 from the small-scale slurry experiments) at […] in an effort to investigate the stability of Form B at elevated temperature by monitoring potential release of hydrogen chloride.
# [8] = 0.1M HCl:acetone 20:80, ambient
# [9] = 0.5M HCl:acetone 10:90, ambient
# [10] = 0.5M HCl:acetone 20:80, ambient
# [11] = 1.0M HCl:acetone 75:25, ambient
compound,measurement,setting,value
CC(C)N1CCN(c2ccc(Nc3ncc4cc5n(c4n3)C3(CCCCC3)CNC5=O)nc2)CC1.Cl.Cl [Sample 11],Weight Loss (calculated by weight before and after drying),"[1]; 22° C., 0.5 h (~14 in Hg)",Weight loss: 1.8%
same,XRPD Result,"[1]; 22° C., 0.5 h (~14 in Hg)",Form B tiny peak
CC(C)N1CCN(c2ccc(Nc3ncc4cc5n(c4n3)C3(CCCCC3)CNC5=O)nc2)CC1.Cl.Cl [F],Possible Form,[2],Unstable
CC(C)N1CCN(c2ccc(Nc3ncc4cc5n(c4n3)C3(CCCCC3)CNC5=O)nc2)CC1.Cl.Cl [Form D],moisture adsorbed,[3]; 60% RH,4.4 wt %
same,% wt change at 60% RH,[3]; 60% RH,4.4 % wt
same,% wt change at 90% RH,[3]; 90% RH,17.0 % wt
same,stability in the moisture sorption experiment (XRPD of dried sample),[3],unstable; also recorded: not stable
same,XRPD (post DVS),[3],Form K
same,XRPD pattern after thermal stress,[4],No change in the XRPD pattern
CC(C)N1CCN(c2ccc(Nc3ncc4cc5n(c4n3)C3(CCCCC3)CNC5=O)nc2)CC1.Cl.Cl [Sample 19],Weight Loss (calculated by weight before and after drying),"[1]; RT, 1.0 h (~27-28 in Hg)",Weight loss: 9.7%
same,XRPD Result,"[1]; RT, 1.0 h (~27-28 in Hg)",Form B + broad
CC(C)N1CCN(c2ccc(Nc3ncc4cc5n(c4n3)C3(CCCCC3)CNC5=O)nc2)CC1.Cl.Cl [Form A],moisture adsorbed,[3]; 60% RH,14.9 wt %
same,moisture adsorbed,[3]; 90% RH,15.8 wt %
same,% wt change at 60% RH,[3]; 60% RH,14.9 % wt
same,% wt change at 90% RH,[3]; 90% RH,15.8 % wt
same,stability in the moisture sorption experiment (XRPD of dried sample),[3],unstable; also recorded: not stable
same,XRPD (post DVS),[3],Form K
same,XRPD pattern after thermal stress,[4],A new pattern was found; also recorded: converted to a new Form
CC(C)N1CCN(c2ccc(Nc3ncc4cc5n(c4n3)C3(CCCCC3)CNC5=O)nc2)CC1.Cl.Cl [Sample 14],Weight Loss (calculated by weight before and after drying),"[5]; 23° C., 2 h (~29.5 in Hg)",Weight loss: 6.8%
same,Weight Loss (calculated by weight before and after drying),"[5]; ~40° C., 15 h (~29.5 in Hg)",Weight loss: 7.5%
CC(C)N1CCN(c2ccc(Nc3ncc4cc5n(c4n3)C3(CCCCC3)CNC5=O)nc2)CC1.Cl.Cl [E],Possible Form,[2],Acetone
CC(C)N1CCN(c2ccc(Nc3ncc4cc5n(c4n3)C3(CCCCC3)CNC5=O)nc2)CC1.Cl.Cl [impure Form B],Observation,[6]; [8],solids remained
same,Solubility,[6]; [8],<1000 µg/mL
same,Observation,[6]; [9],solids remained
same,Solubility,[6]; [9],<1000 µg/mL
same,Observation,[6]; [10],solids remained
same,Solubility,[6]; [10],<1000 µg/mL
same,Observation,"[6]; 1M HCl:acetone 5:95, ambient",solids remained
same,Solubility,"[6]; 1M HCl:acetone 5:95, ambient",<1000 µg/mL
same,Observation,"[6]; 1M HCl:acetone 10:90, ambient",solids remained
same,Solubility,"[6]; 1M HCl:acetone 10:90, ambient",<1000 µg/mL
same,Observation,"[6]; 1M HCl:acetone 20:80, ambient",solids remained
same,Solubility,"[6]; 1M HCl:acetone 20:80, ambient",<1000 µg/mL
same,Observation,"[6]; 1M HCl:acetone 33:67, ambient",hazy solution
same,Solubility,"[6]; 1M HCl:acetone 33:67, ambient",2000 µg/mL
same,Observation,"[6]; 1M HCl:acetone 50:50, ambient",hazy solution
same,Solubility,"[6]; 1M HCl:acetone 50:50, ambient",4000 µg/mL
same,Observation,"[6]; 1M HCl:acetone 60:40, ambient",hazy solution
same,Solubility,"[6]; 1M HCl:acetone 60:40, ambient",4000 µg/mL
same,Observation,"[6]; 1M HCl:acetone 67:33, ambient",hazy solution
same,Solubility,"[6]; 1M HCl:acetone 67:33, ambient",6000 µg/mL
same,Observation,[6]; [11],hazy solution
same,Solubility,[6]; [11],7000 µg/mL
same,Observation,"[6]; 2.0M HCl, ambient",hazy solution
same,Solubility,"[6]; 2.0M HCl, ambient",4000 µg/mL
same,Observation,"[6]; 5.0M HCl, ambient",hazy solution
same,Solubility,"[6]; 5.0M HCl, ambient",3000 µg/mL
same,Observation,"[6]; 5.0M HCl:water 1:2, ambient",clear solution
same,Solubility,"[6]; 5.0M HCl:water 1:2, ambient",7000 µg/mL
same,Solubility,"[6]; HCl acidic aqueous acetone solvent mixtures, ambient temperature, visual estimate",3000 to 7000 µg/mL
same,Observation,"[6]; Water, ambient",solids remained
same,Solubility,"[6]; Water, ambient",<7000 µg/mL
same,Observation,"[6]; Water:acetone 1:2, ambient",hazy solution
same,Solubility,"[6]; Water:acetone 1:2, ambient",3000 µg/mL
same,Observation,"[6]; Water:acetone 3:1, ambient",solids remained
same,Solubility,"[6]; Water:acetone 3:1, ambient",<3000 µg/mL
CC(C)N1CCN(c2ccc(Nc3ncc4cc5n(c4n3)C3(CCCCC3)CNC5=O)nc2)CC1.Cl.Cl [D],Possible Form,[2],Hydrate
CC(C)N1CCN(c2ccc(Nc3ncc4cc5n(c4n3)C3(CCCCC3)CNC5=O)nc2)CC1.Cl.Cl [G],Possible Form,[2],Anhydrate
CC(C)N1CCN(c2ccc(Nc3ncc4cc5n(c4n3)C3(CCCCC3)CNC5=O)nc2)CC1.Cl.Cl [C],Possible Form,[2],EtOAc
CC(C)N1CCN(c2ccc(Nc3ncc4cc5n(c4n3)C3(CCCCC3)CNC5=O)nc2)CC1.Cl.Cl [A],Possible Form,[2],Hydrate
CC(C)N1CCN(c2ccc(Nc3ncc4cc5n(c4n3)C3(CCCCC3)CNC5=O)nc2)CC1.Cl.Cl [B],Possible Form,[2],Hydrate
CC(C)N1CCN(c2ccc(Nc3ncc4cc5n(c4n3)C3(CCCCC3)CNC5=O)nc2)CC1.Cl.Cl [Sample 21],Weight Loss (calculated by weight before and after drying),"[1]; 22° C., 0.5 h (~28 in Hg)",Weight loss: 30.6%
CC(C)N1CCN(c2ccc(Nc3ncc4cc5n(c4n3)C3(CCCCC3)CNC5=O)nc2)CC1.Cl.Cl [Sample 23],Weight Loss (calculated by weight before and after drying),"[1]; 22° C., 1.0 h (~27-28 in Hg)",Weight loss: 4.7%
same,XRPD Result,"[1]; 22° C., 1.0 h (~27-28 in Hg)",Most likely Form B
CC(C)N1CCN(c2ccc(Nc3ncc4cc5n(c4n3)C3(CCCCC3)CNC5=O)nc2)CC1.Cl.Cl [H],Possible Form,[2],n-PrOH
CC(C)N1CCN(c2ccc(Nc3ncc4cc5n(c4n3)C3(CCCCC3)CNC5=O)nc2)CC1.Cl.Cl [Sample 8],Weight Loss (calculated by weight before and after drying),"[5]; ~40° C., 15 h (~29.5 in Hg)",Weight loss: 7.4%
same,XRPD Result,"[5]; after Vacuum oven, ~40° C., 15 h (~29.5 in Hg)",New crystalline
"CC(C)N1CCN(c2ccc(Nc3ncc4cc5n(c4n3)C3(CCCCC3)CNC5=O)nc2)CC1.Cl.Cl [Compound II, Form B]",Weight (%),"[7]; 0.38 min, 36.60 ° C.",99.93%
same,Weight (%),"[7]; 0.55 min, 40.20 ° C.",99.87%
same,Weight (%),"[7]; 0.73 min, 43.80 ° C.",99.77%
same,Weight (%),"[7]; 0.90 min, 47.40 ° C.",99.63%
same,Weight (%),"[7]; 1.08 min, 51.00 ° C.",99.46%
same,Weight (%),"[7]; 1.25 min, 54.60 ° C.",99.26%
same,Weight (%),"[7]; 1.43 min, 58.20 ° C.",99.03%
same,Weight (%),"[7]; 1.61 min, 61.80 ° C.",98.79%
same,Weight (%),"[7]; 1.78 min, 65.40 ° C.",98.52%
same,Weight (%),"[7]; 1.96 min, 69.00 ° C.",98.22%
same,Weight (%),"[7]; 2.14 min, 72.60 ° C.",97.86%
same,Weight (%),"[7]; 2.32 min, 76.20 ° C.",97.44%
same,Weight (%),"[7]; 2.50 min, 79.80 ° C.",96.95%
same,Weight (%),"[7]; 2.68 min, 83.40 ° C.",96.45%
same,Weight (%),"[7]; 2.86 min, 87.00 ° C.",95.97%
same,Weight (%),"[7]; 3.04 min, 90.60 ° C.",95.57%
same,Weight (%),"[7]; 3.23 min, 94.20 ° C.",95.23%
same,Weight (%),"[7]; 3.41 min, 97.80 ° C.",94.95%
same,Weight (%),"[7]; 3.59 min, 101.40 ° C.",94.71%
same,Weight (%),"[7]; 3.77 min, 105.00 ° C.",94.50%
same,Weight (%),"[7]; 3.95 min, 108.60 ° C.",94.32%
same,Weight (%),"[7]; 4.13 min, 112.20 ° C.",94.18%
same,Weight (%),"[7]; 4.31 min, 115.80 ° C.",94.06%
same,Weight (%),"[7]; 4.68 min, 123.00 ° C.",93.86%
same,Weight (%),"[7]; 4.86 min, 126.60 ° C.",93.78%
same,Weight (%),"[7]; 5.04 min, 130.20 ° C.",93.71%
same,Weight (%),"[7]; 5.22 min, 133.80 ° C.",93.65%
CC(C)N1CCN(c2ccc(Nc3ncc4cc5n(c4n3)C3(CCCCC3)CNC5=O)nc2)CC1.Cl.Cl [Form C],XRPD pattern after thermal stress,[4],remained unchanged
